From PubChem BioAssay (NCI)
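Five compound concentrations were applied to cells in 96-well plates for 48 hours; endpoints were derived by simple linear interpolation of the resulting dose-response curve. GI50 = concentration required for 50% inhibition of growth. Definition used: TGI = concentration required for complete inhibition of growth.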

Key:
Experiment in all cases: DTP human tumour cell line panel, 48 h
[1] = test system: SN12C renal
[2] = test system: NCI-H460 lung
[3] = test system: MCF7 breast
[4] = test system: UACC-62 melanoma
[5] = test system: HCT-15 colon
[6] = test system: MOLT-4 leukemia
[7] = test system: HS 578T breast
[8] = test system: OVCAR-8 ovarian
[9] = test system: KM12 colon
[10] = test system: MDA-MB-231 breast

SMILES: CSc1ccc(-c2ccccc(=O)c2O)cc1
- GI50 [1]: 0.878 µM
- TGI [1]: 30.3 µM
- GI50 [2]: 0.371 µM
- TGI [2]: 10.8 µM
- GI50 [3]: 0.322 µM
- TGI [3]: > 100 µM
- GI50 [4]: 0.397 µM
- TGI [4]: 2.92 µM
- GI50 [5]: 0.172 µM
- TGI [5]: 29.7 µM
- GI50 [6]: 0.348 µM
- TGI [6]: > 100 µM
- GI50 [7]: 2.77 µM
- TGI [7]: 99.7 µM
- GI50 [8]: 0.39 µM
- TGI [8]: 64.8 µM
- GI50 [9]: 0.508 µM
- TGI [9]: > 100 µM
- GI50 [10]: 0.603 µM
- TGI [10]: > 100 µM

SMILES: Cc1c(O)c2ccccc2oc1=O
- TGI [1]: > 100 µM
- TGI [2]: > 100 µM
- TGI [3]: > 100 µM
- TGI [4]: > 100 µM
- TGI [5]: > 100 µM
- TGI [6]: > 100 µM
- TGI [7]: > 100 µM
- TGI [8]: > 100 µM
- TGI [9]: > 100 µM
- TGI [10]: > 100 µM

SMILES: CC1(C)N=C(N)N=C(N)N1c1ccc(CCCCc2ccccc2)c(Cl)c1
- GI50 [1]: 0.0521 µM
- TGI [1]: 7.02 µM
- GI50 [2]: < 0.0129 µM
- TGI [2]: 4.04 µM
- GI50 [3]: 0.0256 µM
- TGI [3]: 2.12 µM
- GI50 [4]: 0.0505 µM
- TGI [4]: 2.67 µM
- GI50 [5]: 0.522 µM
- TGI [5]: 35.5 µM
- GI50 [6]: 0.095 µM
- TGI [6]: 11.3 µM
- GI50 [7]: 4.49 µM
- TGI [7]: 39.4 µM
- GI50 [8]: 0.0606 µM
- TGI [8]: > 39.7 µM
- GI50 [9]: 0.059 µM
- TGI [9]: 1.42 µM
- GI50 [10]: 0.444 µM
- TGI [10]: 5.85 µM

SMILES: Cc1cc(Nc2ccc(OCc3ccccc3)cc2)nc2cc(O)ccc12
- GI50 [1]: 5.75 µM
- TGI [1]: 20.3 µM
- GI50 [2]: 3.09 µM
- TGI [2]: 10.2 µM
- GI50 [3]: 3.32 µM
- TGI [3]: 14.2 µM
- GI50 [4]: 2.96 µM
- TGI [4]: 10.7 µM
- GI50 [5]: 2.16 µM
- TGI [5]: 5.48 µM
- GI50 [6]: 3.37 µM
- TGI [6]: 17.4 µM
- GI50 [7]: 10.2 µM
- TGI [7]: 29.2 µM
- GI50 [8]: 12.4 µM
- TGI [8]: 29.5 µM
- GI50 [9]: 3.1 µM
- TGI [9]: 13.3 µM
- GI50 [10]: 2.52 µM
- TGI [10]: 8.78 µM
